# Measured values published in US8598364B2, “Oligomer-protease inhibitor conjugates” (Nektar Therapeutics, priority 2007, dated 2013).
# Read-outs that look alike come from different tables or passages of the source.
# How the values were obtained:
# HIV-1RF = test: Anti-HIV-1 efficacy in CEM-SS cells infected with HIV-1RF (MTS staining); assay type: cell-based; details: for IC50: read-out: In vitro Activity IC50
# Method: (§1) Compounds were tested at a 1.0 μM high-test concentration in DMSO. CEM-SS cells were passaged in T-75 flasks prior to use in the antiviral assay. On the day preceding the assay, the cells were split 1:2 in order to assure they were in exponential growth phase at the time of infection. Total cell and viability quantification was performed using a hemacytometer and trypan blue exclusion. Cell viability was greater than 95% for the cells to be utilized in the assay. The cells were resuspended at 5×10^4 cells/mL in tissue culture medium and added to the drug-containing microtiter plates in a volume of 50 μL.
# The virus used was the lymphocytropic virus strain HIV-1RF. This virus was obtained from the NIH AIDS research and Reference Reagent Program and was grown in CEM-SS cells for the production of stock virus pools. For each assay, a pre-titered aliquot of virus was removed from the freezer and allowed to thaw slowly to room temperature in a biological safety cabinet. The virus was resuspended and diluted into tissue culture medium such that the amount of virus added to each well in a volume of 50 μL was the amount determined to give approximately 90% cell killing in six days post-infection.
# (§2) Each plate contains cell control wells (cells only), virus control wells (cells plus virus), compound cytotoxicity wells (cells plus compound only), compound colorimetric control wells (compound only), as well as experimental wells (compound plus cells plus virus). Samples were evaluated with triplicate measurements for antiviral efficacy and duplicate measurements for cytotoxicity. Six concentrations at half-log dilutions were used in order to determine the IC50 values and to measure cellular cytotoxicity, if detectable.
# (§3) At assay termination, the assay plates were stained with the soluble tetrazolium-based dye MTS (CellTiter Reagent, Promega) to determine cell viability and quantify compound cytotoxicity. […] At termination of the assay, 20 μL of MTS reagent was added per well. The wells were incubated for four to six hours at 37° C. Adhesive plate sealers were used in place of the lids, the seal plate was inverted several times to mix the soluble formazan product and the plate was read spectrophotometrically at 490/650 nm with a Molecular Devices Vmax plate reader.
# CEM-SS cells = test: in vitro
# Method: as §1, §2, §3
# in vitro = details: human
# Method: as §1, §2, §3
# retroviral protease = target: T1, retroviral protease (Human immunodeficiency virus type 1 group M subtype B, UniProt P04585); test: Cell-free assay of protease inhibitor conjugates; assay type: biochemical; details: for IC50-fold change / IC90 fold change: relative to atazanavir
# T1 construct: any small molecule that can reduce the activity of a retroviral protease
# [1] = Table 1, CEM-SS cells, HIV-1RF, 50% inhibition of virus replication, 1.0 μM high-test concentration
# [2] = Table 2, atazanavir conjugates, read-out: CEM-SS/HIV-1RF EC50
# [3] = Table 4, CEM-SS/HIV-1RF, read-out: EC50
# [4] = Human immunodeficiency virus 1, CEM-SS, Table 2, atazanavir conjugates, read-out: CEM-SS/HIV-1RF EC50
# [5] = Human immunodeficiency virus 1, Table 4, CEM-SS/HIV-1RF, read-out: EC50
# [6] = IC50, Table 3, cell-free assay, atazanavir conjugates
# [7] = Table 3, cell-free assay, atazanavir conjugates, read-out: IC50
# [8] = Table 3, cell-free assay, atazanavir conjugates, read-out: IC90
compound,measurement,setting,value
26-m-PEG-7-O-Saquinavir,In vitro Activity IC50,HIV-1RF; [1],no activity
same,CC50,CEM-SS cells,> 1000 nM
"CCC[C@@]1(CCc2ccccc2)CC(O)=C([C@H](CC)c2cccc(NS(=O)(=O)c3ccc(C(F)(F)F)cn3)c2)C(=O)O1 [Tipranavir, tipranavir, reference compound]",EC50,"HIV-1RF; Human immunodeficiency virus 1, CEM-SS, Table 5, tipranavir conjugates in cell-based assay, read-out: CEM-SS/HIV-1RF EC50",120 nM
same,CC50,in vitro,30600 nM
same,IC50,"retroviral protease; IC50, Table 6, tipranavir conjugates in cell-free assay",7.2 nM
15-di-m-PEG-7-NCO-Saquinavir [di-15-m-PEG-7-NCO-Saquinavir],IC50,HIV-1RF; [1],560 nM
same,CC50,CEM-SS cells,> 1000 nM
"Cc1cn([C@H]2C[C@H](N=[N+]=[N-])[C@@H](CO)O2)c(=O)[nH]c1=O [AZT, reference compound]",EC50,HIV-1RF; [2],1 nM
same,EC50,HIV-1RF; [3],1 nM
same,EC50,"HIV-1RF; Table 5, tipranavir conjugates in cell-based assay, read-out: CEM-SS/HIV-1RF EC50",2 nM
same,EC50,"HIV-1RF; Table 7, darunavir conjugates in cell-based assay, read-out: CEM-SS/HIV-1RF EC50",5 nM
same,CC50,CEM-SS cells,> 1000 nM
26-m-PEG-3-O-Saquinavir,In vitro Activity IC50,HIV-1RF; [1],no activity
same,CC50,CEM-SS cells,> 1000 nM
"COCCOCCOCCOC(=O)NC(C(=O)NC(Cc1ccccc1)C(O)CN(Cc1ccc(-c2ccccn2)cc1)NC(=O)C(NC(=O)OCCOCCOCCOC)C(C)(C)C)C(C)(C)C (stereo not shown) [di-mPEG-3-Atazanavir, di-mPEG3-Atazanavir]",EC50,HIV-1RF; [4],38 nM
same,EC50,HIV-1RF; [5],38 nM
same,CC50,in vitro,95700 nM
same,IC90,retroviral protease,53.7 nM
same,IC50,retroviral protease; [6],12.7 nM
same,IC50-fold change,"retroviral protease; Table 3, cell-free assay",1.8
same,IC90 fold change,"retroviral protease; Table 3, cell-free assay",1.7
"CC(C)CN(C[C@@H](O)[C@H](Cc1ccccc1)NC(=O)O[C@H]1CO[C@H]2OCC[C@H]21)S(=O)(=O)c1ccc(N)cc1 [Darunavir, darunavir, reference compound]",EC50,"HIV-1RF; Human immunodeficiency virus 1, CEM-SS, read-out: CEM-SS/HIV-1RF EC50",< 0.7 nM
di-mPEG6-Atazanavir [di-mPEG-6-Atazanavir],EC50,HIV-1RF; [2],2500 nM
same,EC50,HIV-1RF; [3],2500 nM
same,CC50,CEM-SS cells,159000 nM
same,IC50,retroviral protease; [7],15.6 nM
same,IC90,retroviral protease; [8],67.8 nM
same,IC50-fold change,"retroviral protease; Table 3, cell-free assay",2.3
same,IC90 fold change,"retroviral protease; Table 3, cell-free assay",2.1
di-mPEG5-Atazanavir [di-mPEG-5-Atazanavir],EC50,HIV-1RF; [2],1100 nM
same,EC50,HIV-1RF; [3],1100 nM
same,CC50,CEM-SS cells,> 200000 nM
same,IC50,retroviral protease; [7],17.3 nM
same,IC90,retroviral protease; [8],47.6 nM
same,IC50-fold change,"retroviral protease; Table 3, cell-free assay",2.5
same,IC90 fold change,"retroviral protease; Table 3, cell-free assay",1.5
"COC(=O)N[C@H](C(=O)N[C@@H](Cc1ccccc1)[C@@H](O)CN(Cc1ccc(-c2ccccn2)cc1)NC(=O)[C@@H](NC(=O)OC)C(C)(C)C)C(C)(C)C [Atazanavir, atazanavir, reference compound]",EC50,HIV-1RF; [4],12 nM
same,EC50,HIV-1RF; [5],12 nM
same,CC50,in vitro,54900 nM
same,IC90,retroviral protease,31.8 nM
same,IC50,retroviral protease; [6],6.92 nM
same,IC50-fold change,"retroviral protease; Table 3, cell-free assay",1.0
same,IC90 fold change,"retroviral protease; Table 3, cell-free assay",1.0
15-m-PEG-7-NHCO-Saquinavir,IC50,HIV-1RF; [1],50 nM
same,CC50,CEM-SS cells,> 1000 nM
"CC(C)(C)NC(=O)[C@@H]1C[C@@H]2CCCC[C@@H]2CN1C[C@@H](O)[C@H](Cc1ccccc1)NC(=O)[C@H](CC(N)=O)NC(=O)c1ccc2ccccc2n1 [Saquinavir, saquinavir, reference compound]",IC50,"HIV-1RF; Human immunodeficiency virus 1, CEM-SS",2 nM
same,CC50,in vitro,> 100 nM
"COCCOCCOCCOCCOCCOCCOCCOC(=O)NC(C(=O)NC(Cc1ccccc1)C(O)CN(Cc1ccc(-c2ccccn2)cc1)NC(=O)C(NC(=O)OCCOCCOCCOCCOCCOCCOCCOC)C(C)(C)C)C(C)(C)C (stereo not shown) [di-mPEG-7-Atazanavir, di-mPEG7-Atazanavir]",EC50,HIV-1RF; [4],8400 nM
same,EC50,HIV-1RF; [5],8400 nM
same,CC50,in vitro,> 200000 nM
same,CC50,CEM-SS cells; human,> 200000 nM
same,IC90,retroviral protease,39.9 nM
same,IC50,retroviral protease; [6],10.9 nM
same,IC50-fold change,"retroviral protease; Table 3, cell-free assay",1.6
same,IC90 fold change,"retroviral protease; Table 3, cell-free assay",1.3
